{"source": "patent US20050100903A1", "about": "“Screening method” (priority 2001, published 2005)", "key": {"[1]": {"test_system": "CEACAM-1 expression in HT29 cells", "assay": "Western Blot of CEACAM expression in HT29 colon carcinoma cells", "assay_type": "cell-based, human", "details": "HT29, 10 ng/ml, 6 hours", "protocol": "HT29 colon carcinoma cells were incubated for 6 hours with TNF-α (10 ng/ml). The cells were examined microscopically for vitality, then lysed, their total protein isolated and separated electrophoretically. 8 μg protein was separated per lane. An anti-CEA antibody and an anti-mouse-HRP-coupled secondary antibody (Dianova, Hamburg, Germany) were used for detection. A cross-reacting anti-CEA antibody was chosen to investigate the selectivity of candidate substances for the expression of individual antigens. The selectivity of the substance effects is important since CEACAM-1 and CEACAM-7/CEA and CEACAM-6 can have antagonistic effects on apoptosis.\nThe proportionality of expression of individual CEACAMs can be quantified in Western Blot after densitometric evaluation (e.g., public domain NIH software IMAGE 1.6.1). The antigens are identified in the Western Blot through assignment to relative molar mass. The molecular size of the individual CEACAMs is described in the literature. The Western Blot was normalized with β-actin (Sigma-Aldrich, Taufkirchen, Germany). This blot (FIG. 6) was subsequently evaluated densitometrically using the NIH Image Software 1.6.1.\n200 nM wortmannin (Calbiochem-Novabiochem, Nottingham, UK) was incubated with 1×10^6 cells/well (6-well plate) for 3, 8 or 24 hours. […]"}, "HT29 cells": {"test_system": "HT29 cells", "assay": "Apoptosis in HT29 cells with or without γ-interferon stimulation, with antibody cross-linking", "assay_type": "cell-based, human", "details": "addition over a short period (500 U/ml, 6 hours)", "protocol": "HT29 cells were treated for 6 hours with 500 U/ml γ-interferon. The procedure was also run without interferon stimulation. After change of medium, the cells were treated with primary antibodies as in Example 4. These were: mAb 4D1C2 (anti-CEACAM-1 at 4 μg/ml) or irrelevant mAb 7D11 (anti-β-catenin at 1 μg/ml). A test run without antibody was used as a second negative control.\nAfter medium change, secondary antibody (anti-mouse at 15 μg/ml) was added. After a total experiment duration of 80-96 hours, the level of apoptosis was determined using standard propidium iodide staining or the apoptosis ELISA of ROCHE Molecule Systems, strictly in accordance with the instructions of the manufacturer. All experiments were performed in triplicate and repeated 3× independently. The Wilcoxon signed ranks test was used to assess the significance of the data."}}}
{"substance": "TNF-α", "values": [{"measurement": "Influence on other proteins of the CEACAM family", "setting": "[1]", "value": "without influencing"}, {"measurement": "Upregulation of CEACAM-1 compared to the untreated sample", "setting": "[1]; densitometry of Western Blot normalized with β-actin", "value": "approximately 2 fold"}]}
{"substance": "gamma-interferon: gamma-interferon, stimulates HT29 cells to produce CEACAM-1", "values": [{"measurement": "CEACAM-1 production in HT29 cells", "setting": "HT29 cells", "value": "stimulates"}]}
